Results taken from patent publication US20090220626A1 (priority 2005, published 2009).

Molecular target: T1, human recombinant CYP2A6 (Homo sapiens, UniProt P11509)
T1 construct: purchased
T1 sequence (P11509 1-494): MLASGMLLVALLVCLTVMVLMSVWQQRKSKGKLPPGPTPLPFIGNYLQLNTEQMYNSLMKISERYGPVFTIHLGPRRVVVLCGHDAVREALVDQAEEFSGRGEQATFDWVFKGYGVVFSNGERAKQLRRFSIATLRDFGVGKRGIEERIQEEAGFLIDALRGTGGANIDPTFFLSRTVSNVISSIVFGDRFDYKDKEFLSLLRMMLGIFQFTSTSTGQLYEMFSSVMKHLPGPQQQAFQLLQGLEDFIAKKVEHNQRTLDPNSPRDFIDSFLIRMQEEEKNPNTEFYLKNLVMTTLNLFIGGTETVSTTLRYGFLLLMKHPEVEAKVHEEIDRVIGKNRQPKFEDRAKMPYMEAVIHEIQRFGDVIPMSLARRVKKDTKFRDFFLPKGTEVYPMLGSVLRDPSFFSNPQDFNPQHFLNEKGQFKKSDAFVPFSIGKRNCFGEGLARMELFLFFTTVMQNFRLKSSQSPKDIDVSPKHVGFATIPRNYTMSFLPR
Assay: Inhibition of nicotine metabolism in CYP2A6 Supersomes
Assay type: biochemical
Conditions: 0, 1 and 100 μM; nicotine 100 μM, 15 minutes at 37° C.
Procedure: Samples containing 0, 5, 50, or 500 μM of GSE or Capsule were prepared as described in Example 4. Each sample was incubated with CYP2A6 Supersomes (human recombinant CYP2A6 in an artificial system comprising requisite factors for sample stability and function), with 20 pmol/ml nicotine at 100 μM, for 15 minutes at 37° C.
Sample containing 0, 1 and 100 μM of cytisine, a nicotine agonist, were prepared by extraction in ddH2O pH 4.1, for 2 hours at room temperature with continuous vortexing. The extraction was done at a concentration of 47 mg/ml. The samples were incubated with CYP2A6 Supersomes with 20 pmmol/ml of nicotine at 100 μM for 15 minutes at 37° C.

O=c1cccc2n1C[C@@H]1CNC[C@H]2C1 [cytisine]
inhibitory effect in CYP2A6 Supersomes (FIG. 7): does not have an inhibitory effect
